Source: PubChem BioAssay AID256 (DTP/NCI, 2004)
“And” between values parts separate entries of the source, which are not always exact repeats. Equal entries are not always repeated. Toxic doses and inconclusive results are not listed. The calls were made as follows: active = survival T/C of 150% or more; inactive = T/C below 125% in these data.

Tested on: CD2F1 mice, L1210 leukemia ip, survival T/C
Test: NCI In Vivo Anticancer Drug Screen. Data for tumor model L1210 Leukemia (intraperitoneal) in CD2F1 (CDF1) mice
Conditions: endpoint: mean survival time, higher = longer survival
How it was run: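 Implant tumor; dose compound or vehicle; measure endpoint in both groups; report treated divided by control.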

[1] = dose: 50.0 mg/kg/injection, schedule: Q01DX009 (ip), vehicle: saline with Tween-80
[2] = dose: 100.0 mg/kg/injection, schedule: Q01DX009 (ip), vehicle: saline with Tween-80
[3] = dose: 100.0 mg/kg/injection, schedule: Q04DX003 (ip), vehicle: saline with Tween-80
[4] = dose: 200.0 mg/kg/injection, schedule: Q01DX009 (ip), vehicle: saline with Tween-80
[5] = dose: 200.0 mg/kg/injection, schedule: Q04DX003 (ip), vehicle: saline with Tween-80
[6] = dose: 100.0 mg/kg/injection, schedule: Q01DX001 (ip), vehicle: saline with Tween-80
[7] = dose: 400.0 mg/kg/injection, schedule: Q01DX009 (ip), vehicle: saline with Tween-80
[8] = dose: 12.5 mg/kg/injection, schedule: Q04DX003 (ip), vehicle: saline with Tween-80
[9] = dose: 400.0 mg/kg/injection, schedule: Q04DX003 (ip), vehicle: saline with Tween-80

Measured: T/C

C=CCN(C)N=Nc1ccc(NC(N)=O)cc1
inactive: dose: 2.34 mg/kg/injection, schedule: Q01DX009 (ip), vehicle: Klucel (hydroxypropylcellulose) (HPC) 100 % of control and 104 % of control | dose: 4.68 mg/kg/injection, schedule: Q01DX009 (ip), vehicle: Klucel (hydroxypropylcellulose) (HPC) 104 % of control and 107 % of control | dose: 9.37 mg/kg/injection, schedule: Q01DX009 (ip), vehicle: Klucel (hydroxypropylcellulose) (HPC) 110 % of control | dose: 18.75 mg/kg/injection, schedule: Q01DX009 (ip), vehicle: Klucel (hydroxypropylcellulose) (HPC) 120 % of control | dose: 75.0 mg/kg/injection, schedule: Q01DX009 (ip), vehicle: Klucel (hydroxypropylcellulose) (HPC) 98 % of control

O=C(O)C(NC1CCCCC1)c1ccccc1 (stereo unspecified)
inactive: [1] 95 % of control | [2] 103 % of control | [3] 92 % of control | [4] 92 % of control | [5] 93 % of control

ClCc1ccc(Cl)cc1
inactive: dose: 25.0 mg/kg/injection, schedule: Q01DX001 (ip), vehicle: saline with Tween-80 102 % of control | dose: 50.0 mg/kg/injection, schedule: Q01DX001 (ip), vehicle: saline with Tween-80 106 % of control | [6] 92 % of control and 102 % of control

O=C(COc1ccc(Br)cc1)Nc1cc(Cl)ccc1Cl
inactive: dose: 100.0 mg/kg/injection, schedule: Q04DX002 (ip), vehicle: saline with Tween-80 87 % of control | dose: 200.0 mg/kg/injection, schedule: Q04DX002 (ip), vehicle: saline with Tween-80 95 % of control | dose: 400.0 mg/kg/injection, schedule: Q04DX002 (ip), vehicle: saline with Tween-80 91 % of control

c1ccc2c(c1)[nH]c1c2cc[n+]2cc3c(cc12)CCCC3
inactive: dose: 5.0 mg/kg/injection, schedule: Q01DX001 (ip), vehicle: saline 100 % of control | dose: 10.0 mg/kg/injection, schedule: Q01DX001 (ip), vehicle: saline 101 % of control | dose: 20.0 mg/kg/injection, schedule: Q01DX001 (ip), vehicle: saline 106 % of control | dose: 40.0 mg/kg/injection, schedule: Q01DX001 (ip), vehicle: saline 109 % of control

O=C(O)C1=CCC=CC1
inactive: [2] 104 % of control | [4] 97 % of control | [7] 106 % of control

O=C(Nc1nc(-c2ccccc2)cs1)Nc1cccc(Cl)c1Cl
inactive: [1] 101 % of control | [2] 90 % of control | [4] 97 % of control

CN(C)CC1CCCCN1 (stereo unspecified)
inactive: dose: 50.0 mg/kg/injection, schedule: Q01DX009 (ip), vehicle: saline 94 % of control | dose: 100.0 mg/kg/injection, schedule: Q01DX009 (ip), vehicle: saline 94 % of control | dose: 200.0 mg/kg/injection, schedule: Q01DX009 (ip), vehicle: saline 94 % of control

N=C1N(c2ccccc2)CCN1c1ccccc1
inactive: dose: 6.25 mg/kg/injection, schedule: Q04DX003 (ip), vehicle: saline with Tween-80 94 % of control | [8] 92 % of control

CC(=O)NCc1cc(CNC(C)=O)c(C)cc1C
inactive: [2] 98 % of control | [3] 95 % of control | [4] 88 % of control | [5] 91 % of control | [7] 95 % of control | [9] 87 % of control

N#CC(C#N)=C1Cc2ccccc2C1
inactive: [8] 93 % of control | dose: 25.0 mg/kg/injection, schedule: Q04DX003 (ip), vehicle: saline with Tween-80 100 % of control | dose: 50.0 mg/kg/injection, schedule: Q04DX003 (ip), vehicle: saline with Tween-80 94 % of control

NCCCNc1ccc([N+](=O)[O-])cc1
inactive: dose: 75.0 mg/kg/injection, schedule: Q01DX001 (ip), vehicle: saline 98 % of control | dose: 150.0 mg/kg/injection, schedule: Q01DX001 (ip), vehicle: saline 106 % of control | dose: 300.0 mg/kg/injection, schedule: Q01DX001 (ip), vehicle: saline 98 % of control

CCCCCCCCCCCCCCCCOc1ccc(S(=O)(=O)NC(C)(C)C)cc1[N+](=O)[O-]
inactive: [3] 105 % of control | [5] 96 % of control | [9] 94 % of control

CCCCSC(=N)N
inactive: dose: 25.0 mg/kg/injection, schedule: Q01DX001 (ip), vehicle: saline 100 % of control | dose: 50.0 mg/kg/injection, schedule: Q01DX001 (ip), vehicle: saline 105 % of control | dose: 100.0 mg/kg/injection, schedule: Q01DX001 (ip), vehicle: saline 113 % of control

O=C(CCCl)c1ccccc1
inactive: dose: 25.0 mg/kg/injection, schedule: Q01DX009 (ip), vehicle: other 104 % of control | dose: 50.0 mg/kg/injection, schedule: Q01DX009 (ip), vehicle: other 100 % of control | dose: 100.0 mg/kg/injection, schedule: Q01DX009 (ip), vehicle: other 92 % of control and 96 % of control

Nc1nc(N)c2c(n1)CCCC2
inactive: dose: 12.5 mg/kg/injection, schedule: Q01DX009 (ip), vehicle: saline with Tween-80 93 % of control | dose: 25.0 mg/kg/injection, schedule: Q01DX009 (ip), vehicle: saline with Tween-80 88 % of control

COC(=O)C1CCOC1=O (stereo unspecified)
inactive: dose: 100.0 mg/kg/injection, schedule: Q04DX002 (ip), vehicle: saline 98 % of control | dose: 200.0 mg/kg/injection, schedule: Q04DX002 (ip), vehicle: saline 98 % of control | dose: 400.0 mg/kg/injection, schedule: Q04DX002 (ip), vehicle: saline 102 % of control

CCOC(=O)c1ccc(OC(=O)Nc2cc(OC)ccc2OC)cc1
inactive: [2] 93 % of control | [4] 92 % of control

Cc1c(O)c(=O)n(-c2ccccc2)n1C
inactive: [3] 96 % of control | [5] 93 % of control | [9] 96 % of control

C=C(c1cn(C(C)=O)c2ccccc12)c1cn(C(C)=O)c2ccccc12
inactive: [2] 95 % of control | [4] 96 % of control | [7] 98 % of control

COC1c2cc3ccccc3nc2-c2ccccc2C1(C)C (stereo unspecified)
inactive: dose: 12.5 mg/kg/injection, schedule: Q01DX009 (ip), vehicle: water 96 % of control | dose: 25.0 mg/kg/injection, schedule: Q01DX009 (ip), vehicle: water 96 % of control | dose: 50.0 mg/kg/injection, schedule: Q01DX009 (ip), vehicle: water 91 % of control | dose: 100.0 mg/kg/injection, schedule: Q01DX009 (ip), vehicle: water 91 % of control | dose: 200.0 mg/kg/injection, schedule: Q01DX009 (ip), vehicle: water 90 % of control

Brc1ccc2c(c1)Cc1cc(N=Cc3ccc4c(c3)OCO4)ccc1-2
inactive: dose: 100.0 mg/kg/injection, schedule: Q01DX001 (ip), vehicle: carboxymethylcellulose (CMC) 97 % of control | dose: 200.0 mg/kg/injection, schedule: Q01DX001 (ip), vehicle: carboxymethylcellulose (CMC) 94 % of control | dose: 400.0 mg/kg/injection, schedule: Q01DX001 (ip), vehicle: carboxymethylcellulose (CMC) 100 % of control

COC(=O)CCS/C=C/C(=O)O
inactive: [6] 97 % of control | dose: 200.0 mg/kg/injection, schedule: Q01DX001 (ip), vehicle: saline with Tween-80 100 % of control | dose: 400.0 mg/kg/injection, schedule: Q01DX001 (ip), vehicle: saline with Tween-80 97 % of control
